From BindingDB's records for doi:10.1016/s0960-894x(98)00019-5 (Abbott Laboratories, 1999)

Assay: Inhibitory concentration to antagonise cation efflux in nAChR subtype human alpha3betaX, expressed in IMR-32 cells

SMILES	IC50 [µM]
CCCc1cncc(OC[C@@H]2CCCN2C)c1 [3-((S)-1-Methyl-pyrrolidin-2-ylmethoxy)-5-propyl-pyridine]	3.2
CCCCc1cncc(OC[C@@H]2CCCN2C)c1 [3-Butyl-5-((S)-1-methyl-pyrrolidin-2-ylmethoxy)-pyridine]	5
